Assay results: patent US20130171224A1, “TREATMENT OF BIOFILMS” (priority 2010, published 2013)
“And” between values parts separate entries of the source, which are not always exact repeats. Identical values can stand only once.

Columns and labels:
Type in all cases: cell-based
[1] = tested on: Pseudomonas aeruginosa ATCC9027 biofilm; assay: Combinational effects between ionic silver and polyphosphate (FIC) on NUNC biofilms; set-up: MIC in combination (A) / MIC in combination (B): unit not given beside the values; details: for MIC alone mg/ml (B): agent B alone; for MIC in combination (B): agent B in combination with A; for MIC alone mg/ml (A): agent A alone; for MIC in combination (A): agent A in combination with B
Method: (§1) The bacteria used in this study were Staphylococcus aureus ATCC6538, Candida albicans ATCC10231 and Pseudomonas aeruginosa ATCC9027. Pure cultures were maintained on nutrient agar at 37° C. The NUNC-TSP transferable solid phase screening system (NUNC, Roskilde, Denmark) was used to generate up to 96 reproducible biofilms in a microtitre plate. Briefly, a suspension of each bacteria was prepared in 0.9% saline solution and adjusted to a McFarland's standard no. 1.0. This bacterial suspension was then diluted 1:30 in sterile TSB and 150 μl aliquots aseptically transferred to a 96 well Calgary device. […] Biofilms were generated as described previously. […] Sigma-Aldrich, Germany) was prepared in water (40 mg/ml) and filter sterilised (0.22 μm). Concentrations of polyphosphate were prepared horizontally across the NUNC 96 well plate, whilst ionic silver was prepared vertically. […] This permitted a diverse array of drug concentration combinations to be tested in a single investigation.

[2] = tested on: Staphylococcus aureus ATCC6538 biofilm; assay: as above; set-up: MIC in combination (A) / MIC in combination (B): unit not given beside the values; details: 24 hour S. aureus biofilm
Method: as §1

[3] = tested on: Candida albicans ATCC10231 biofilm; assay: as above; set-up: MIC in combination (A) / MIC in combination (B): unit not given beside the values; details: 72 hour C. albicans biofilm
Method: as §1

[4] = tested on: Pseudomonas aeruginosa ATCC9027 biofilm; assay: Challenge of NUNC-TSP biofilms to polyphosphate (MIC, MBC, MBEC)
Method: (§2) The bacteria used in this study were Staphylococcus aureus ATCC6538, Candida albicans ATCC10231 and Pseudomonas aeruginosa ATCC9027. Pure cultures were maintained on nutrient agar at 37° C. The NUNC-TSP transferable solid phase screening system (NUNC, Roskilde, Denmark) was used to generate up to 96 reproducible biofilms in a microtitre plate. Briefly, a suspension of each bacteria was prepared in 0.9% saline solution and adjusted to a McFarland's standard no. 1.0. This bacterial suspension was then diluted 1:30 in sterile TSB and 150 μl aliquots aseptically transferred to a 96 well Calgary device. Plates were incubated for 24 and 72 hours and then submerged in 150 μl 0.9% saline solution to remove planktonic bacteria from the biofilm surface. A stock solution of polyphosphate (80 mg/ml) was prepared in distilled water and filter sterilised (0.22 μm). This was subsequently diluted 1:2 in triplicate across the wells in TSB to a final concentration of 0.04 mg/ml. Each well also consisted of positive controls (TSB only in absence of antimicrobial agent) and negative controls. NUNC solid phase lids were subsequently transferred to this challenge plate and incubated overnight (37° C.). Wells were visually inspected for turbidity signifying bacterial growth. The minimum inhibitory concentration was defined as the lowest concentration of polyphosphate to prevent bacterial growth. Aliquots of wells (10 μl) showing no visual signs of turbidity were transferred to fresh TSB stocks and incubated for a further 8 hours (37° C.). This allowed the determination of the minimum bactericidal concentration (MBC). Subsequent to this, challenged NUNC peg lids were transferred to a 96 well recovery plate containing TSB media only. Plates were incubated overnight and visualised for bacterial growth. This allowed the determination of the minimum biofilm eradication concentration (MBEC). Any growth in the media corresponded to planktonic bacteria seeding the media from a viable biofilm. Absence of turbidity therefore signified bacterial eradication at this respective concentration of polyphosphate.

[5] = tested on: Staphylococcus aureus ATCC6538 biofilm; assay: as above
Method: as §2

[6] = 24 hour monospecies P. aeruginosa biofilm
[7] = 24 hour monospecies S. aureus biofilm

O=[N+]([O-])[O-].[Ag+] [silver nitrate, reference compound]
FIC (B) ([1]; 24 hour P. aeruginosa biofilm): 0.0625 | MIC alone mg/ml (B) ([1]; 24 hour P. aeruginosa biofilm): 10 mg/mL | MIC in combination (B) ([1]; 24 hour P. aeruginosa biofilm): 0.625 | FIC (B) ([1]; 72 hour P. aeruginosa biofilm): 0.1 | MIC alone mg/ml (B) ([1]; 72 hour P. aeruginosa biofilm): 0.6 mg/mL | MIC in combination (B) ([1]; 72 hour P. aeruginosa biofilm): 0.07 | FIC (B) [2]: 1 | MIC alone mg/ml (B) ([2]; agent B alone): 0.015 mg/mL | MIC in combination (B) ([2]; agent B in combination with A): 0.015 | FIC (B) [3]: 0.428 | MIC alone mg/ml (B) ([3]; agent B alone): 0.07 mg/mL | MIC in combination (B) ([3]; agent B in combination with A): 0.03

polyphosphate
FIC (A) ([1]; 24 hour P. aeruginosa biofilm): 0.125 | MIC alone mg/ml (A) ([1]; 24 hour P. aeruginosa biofilm): 5 mg/mL | MIC in combination (A) ([1]; 24 hour P. aeruginosa biofilm): 0.625 | FIC (A) ([1]; 72 hour P. aeruginosa biofilm): 0.5 | MIC alone mg/ml (A) ([1]; 72 hour P. aeruginosa biofilm): 80 mg/mL | MIC in combination (A) ([1]; 72 hour P. aeruginosa biofilm): 40 | FIC (A) [2]: 0.012 | MIC alone mg/ml (A) ([2]; agent A alone): 1.25 mg/mL | MIC in combination (A) ([2]; agent A in combination with B): 0.015 | FIC (A) [3]: 0.006 | MIC alone mg/ml (A) ([3]; agent A alone): 5 mg/mL | MIC in combination (A) ([3]; agent A in combination with B): 0.03 | MBC [4, 6]: >80 mg/mL | MBEC [4, 6]: >80 mg/mL | MIC [4, 6]: 5 mg/mL and 5.0 mg/mL | MIC ([4]; 72 hour P. aeruginosa biofilm): 80 mg/mL | MBC [5, 7]: 10 mg/mL | MBEC [5, 7]: 40 to 80 mg/mL | MIC [5, 7]: 1.25 mg/mL | MIC ([5]; 72 hour S. aureus biofilm): 20 mg/mL
